Measured values reported in article PMC4396983 (Bioorganic & medicinal chemistry, 2015).

Tests used:
human recombinant LSD1 [1] = molecular target: T1, human recombinant LSD1 (Homo sapiens, UniProt O60341); assay: Recombinant LSD1 inhibition assay; format: biochemical; conditions: 10 μM
human recombinant LSD1 [2] = molecular target: T1, human recombinant LSD1; conditions: previous studies ref 8; cited from earlier work

SMILES | Effect on LSD1 activity (human recombinant LSD1 [1]) | Mode of inhibition (human recombinant LSD1 [2])
CCNC(=O)NCCCNCCCCCCNCCCNC(=O)NCC.Cl.Cl [Compound 9a] | increase in the activity of LSD1 | –
Cl.N=C(NCCCNCCCCCCCNCCCNC(=N)NC(=N)NCCC(c1ccccc1)c1ccccc1)NC(=N)NCCC(c1ccccc1)c1ccccc1 [Compound 2, verlindamycin] | – | non-competitive inhibitor
Cl.O=C(NCCCNCCCCCNCCCNC(=O)Nc1ccccc1)Nc1ccccc1 [Compound 7a, 1,13-bis-{3-[1-(phenyl)ureido]}-4,10-diazatridecane dihydrochloride] | increase in the activity of LSD1 | –

Now from value to molecule, other results behind:

Effect on LSD1 activity (human recombinant LSD1 [1]) | SMILES | Mode of inhibition (human recombinant LSD1 [2])
increase in the activity of LSD1 | CCCNC(=O)NCCCNCCCCCCNCCCNC(=O)NCCC.Cl.Cl [Compound 9b] | –
increase in the activity of LSD1 | Cl.Cl.O=C(NCCCNCCCCCCNCCCNC(=O)NCc1ccccc1)NCc1ccccc1 [Compound 9d] | –
